# According to US4469701A, “Pyrrolid-3-en-2-ones and pharmaceutical methods of use thereof” (Stauffer Chemical Company, priority 1983, dated 1984):
# Read-outs that look alike come from different tables or passages of the source.
# Key:
# [1] = tested on: mice; experiment: Antiarrhythmic: chloroform-induced cardiac arrhythmia in mice; type: in vivo, mouse; conditions: for ED100: Mus musculus, ip, read-out: ED-100, antiarrhythmic
# Protocol: ^2 A = Antiarrythmic. Less than 2/3 mouse hearts fibrillating 15 min.
# [2] = tested on: rats; experiment: Antiedema: carrageenan paw edema in rats; type: in vivo; conditions: Rattus norvegicus, po, 3 h, read-out: ED-100, antiedema
# Protocol: Rats are dosed p.o. one hour before intraplantar injection of carrigeenan (0.1 ml, 1% susp.). Inhibition of paw edema by more than 30% (>30) 3 hours after carriegeenan injection indicates acute anti-edema activity.
# [3] = tested on: rats; experiment: Bradycardia: heart rate by EKG in rats; type: in vivo, rat; conditions: Rattus norvegicus; for ED100: po, rats, reference compounds, read-out: ED-100, bradycardia
# Protocol: […] Decrease in heart rate by more than 10% (>10) is considered a bradycardic effect.
# Percent decrease in heart rate 45 min. after a 5
# mg/kg oral dose in rats.
# [4] = tested on: rats; experiment: Antiulcer: stress induced gastric ulcers in rats; type: in vivo, rat
# Protocol: Fasted rats were dosed, p.o., 30 minutes before immobilization in wire mesh and partial immersion in water for 4 hours. Inhibition of the resulting stress induced gastric ulcers by more than 60% (>60) indicates activity.
# ^6 U = Antiulcerative. Percent inhibition of stress ulcers 4 hr.
# following a 50 mg/kg oral dose in rats.
# [5] = tested on: mice; experiment: Acute toxicity / autonomic effects observation; conditions: mouse, in vivo
# Protocol: Mice were dosed at 300 mg/kg, per oral (p.o.) and […], interperitoneal (i.p.) for observation of any acute toxic symptoms or autonomic effects during the subsequent 72 hours. If none were noted, pharmacological evaluation proceeded employing doses and concentrations for each test based on appropriate multiples of doses required by suitable reference compounds. If acute toxicity was observed initially, the minimal toxic dose was determined and pharmacological screening doses were reduced proportionately.
# [6] = tested on: spontaneously hypertensive rats (SHR); experiment: Antihypertensive: blood pressure (tail cuff) in spontaneously hypertensive rats (SHR); type: in vivo, rat; conditions: for ED100: po, read-out: ED-100, antihypertensive
# Protocol: Blood pressure was measured indirectly (tail cuff) in unanesthetized, unheated spontaneously hypertensive rats (SHR) before and 2, 4, and 6 hours after p.o. dosing. Reduction in mean pressure by more than 10% (>10) at any two consecutive measurement times after dosing indicates antihypertensive activity.
# [7] = tested on: hypercholesterolemic mice; experiment: Hypocholesterolemic: serum cholesterol in hypercholesterolemic mice; type: in vivo, mouse; conditions: Mus musculus, hypercholesterolemic mice
# Protocol: Mice made hypercholesterolemic by being fed a high cholesterol-cholic acid diet for 7 days were dosed on the sixth and seventh days, p.o. After fasting overnight, reduction in serum cholesterol concentration by more than 15% (>15) from hypercholesterolemic control mice indicates activity.
# ^4 C = Hypocholesterolemic. Percent decrease in serum cholesterol in
# hypercholesterolemic mice given 2 oral doses of 200 mg/kg drug candidate
# [8] = tested on: mice; experiment: Central anticholinergic: oxotremorine tremors in mice; conditions: Mus musculus, ip, 1 h, read-out: ED-100, central anticholinergic
# [9] = p.o., rats, reference compounds
# [10] = Rattus norvegicus, SHR, reference compounds
compound,measurement,setting,value
"COc1ccc(CCN(C)CCCC(C#N)(c2ccc(OC)c(OC)c2)C(C)C)cc1OC (stereo not shown) [verapamil, reference compound]",ED100,[1],50 mg/kg
CC(=O)Oc1ccccc1C(=O)O [aspirin],ED100,[2],150 mg/kg
CC(C)Cc1ccc(C(C)C(=O)O)cc1 (stereo not shown) [ibuprofen],ED100,[2]; [9],25 mg/kg
"CC(C)NCC(O)COc1cccc2ccccc12 (stereo not shown) [propranolol, reference compound]",ED100,[1],40 mg/kg
same,ED100,[3],40 mg/kg
"C=CC1CN2CCC1CC2C(O)c1ccnc2ccc(OC)cc12 (stereo not shown) [qunidine, reference compound]",ED100,[1],100 mg/kg
CC1(C)CCCC(C)(C)N1CC1=CC(=O)N(c2ccc(F)cc2)C1 [Compound 5],inhibition in vivo at 50 mg/kg,"[4]; Rattus norvegicus, 4 hr. following a 50 mg/kg oral dose in rats, significance >60, read-out: U = Antiulcerative: percent inhibition of stress ulcers",75%
same,"Antiulcer effect, in words","[4]; rat, in vivo",noted at antihypertensive doses
same,Autonomic effect / autonomic inhibition,[5],absence of evidence of autonomic inhibition
same,A = Antiarrythmic: mouse hearts fibrillating (of 3),"[1]; 15 min. after a 200 mg/kg intraperitoneal dose, significance <2",0
same,"Antiarrhythmic effect, in words","[1]; mouse, in vivo",noted at antihypertensive doses
same,inhibition in vivo at 100 mg/kg,"[6]; Rattus norvegicus, 6 hr. after a 100 mg/kg oral dose, significance >10, read-out: Antihypertensive: percent decrease in systolic blood pressure in spontaneously hypertensive rats",26%
same,Dose with borderline antihypertensive result,[6]; p.o.,5 mg/kg
same,inhibition in vivo at 5 mg/kg,"[3]; 0.75 h, 45 min. after a 5 mg/kg oral dose in rats, significance >10, read-out: B = Bradycardiac: percent decrease in heart rate",24%
same,inhibition in vivo at 200 mg/kg,"[7]; 2 oral doses of 200 mg/kg 20 hr. apart, significance >20, read-out: C = Hypocholesterolemic: percent decrease in serum cholesterol",0%
"Cc1cccc(C)c1OCC(C)N (stereo not shown) [mexilitine, reference compound]",ED100,"[1]; mice, reference compounds",50 mg/kg
"CC(C)N(CCC(C(N)=O)(c1ccccc1)c1ccccn1)C(C)C (stereo not shown) [disopyramide, reference compound]",ED100,"[1]; mice, reference compounds",50 mg/kg
"CC(CCc1ccccc1)NCC(O)c1ccc(O)c(C(N)=O)c1 (stereo not shown) [labetalol, reference compound]",ED100,[6]; [10],50 mg/kg
"CC1(C)[C@@H](OC(=O)CCC(=O)O)CC[C@]2(C)[C@H]3C(=O)C=C4[C@@H]5C[C@@](C)(C(=O)O)CC[C@]5(C)CC[C@@]4(C)[C@]3(C)CC[C@@H]12 [carbenoxolone, reference compound]",ED100,"[4]; Rattus norvegicus, po, rats, reference compounds, read-out: ED-100, antiulcer",> 100 mg/kg
"NNc1nncc2ccccc12 [hydralazine, reference compound]",ED100,[6]; Rattus norvegicus,2.5 mg/kg
"CCOC(=O)C(C)(C)Oc1ccc(Cl)cc1 [clofibrate, reference compound]",ED100,"[7]; po, reference compounds, read-out: ED-100, hypocholesterolemic",400 mg/kg
CNCCCN1c2ccccc2CCc2ccccc21 [desipramine],ED100,[8],> 25 mg/kg
"COC(=O)[C@H]1[C@H]2C[C@@H]3c4[nH]c5cc(OC)ccc5c4CCN3C[C@H]2C[C@@H](OC(=O)c2cc(OC)c(OC)c(OC)c2)[C@@H]1OC [reserpine, reference compound]",ED100,[6]; [10],25 mg/kg
same,ED100,[3],5 mg/kg
"Clc1cccc(Cl)c1N=C1NCCN1 [clonidine, reference compound]",ED100,[6]; Rattus norvegicus,< 5 mg/kg
same,ED100,[3],0.5 mg/kg
N[C@@H]1C[C@H]1c1ccccc1 (relative stereo) [tranylcypromine],ED100,[8],> 25 mg/kg
CCn1c2c(c3ccccc31)CCSC2(C)CCN(C)C (stereo not shown) [tandamine],ED100,[8],> 50 mg/kg
"Cc1ccc(N(CC2=NCCN2)c2cccc(O)c2)cc1 [phentolamine, reference compound]",ED100,[6]; [10],25 mg/kg
"CC(C)NCC(O)COc1cccc2[nH]ccc12 (stereo not shown) [pindolol, reference compound]",ED100,[1],50 mg/kg
"NC(=S)Cc1ccccn1 [pyridyl-2-thioacetamide, reference compound]","ED-100, antiulcer",[4]; [9],50 mg/kg
